Test results from patent US4778824A, “Method for suppressing a transplantation immunity and treating an allergic disease and an autoimmune disease” (Zaidan Hojin Biseibutsu Kagaku Kenkyu Kai, priority 1984, dated 1988).
Entries after “also recorded” stand apart in the source; their conditions may differ.

What was measured:
[1] = tested on: mice; settings: cited from earlier work
[2] = tested on: Skin allograft rejection (SHR to Fischer rats); experiment: Inhibition of rejection of skin allograft; format: in vivo
Source text: (§1) In the next place, the present inventors conducted a skin graft test with rats. In accordance with the method of Denham et al. (Denham et al., International Archives of Allergy and Applied Immunology, vol. 62, pp. 443-458, 1980), the skin of the tail of SHR rats was peeled and allografted onto Fischer rats. […] The inhibitory action of spergualin on tissue rejections is expected to manifest itself not only in skin transplantation but also in the transplantation of such organs as the kidney, heart, spleen, lung, liver, bone marrow and endocrine organs.
(§2) Skin sections (5×10 mm) were peeled from the tails of SHR rats (female, 10 wk old) and transplanted to Fischer rats (female, 10 wk old) on the back. Varying doses of spergualin were administered intraperitoneally for a consecutive period of 10 or 20 days starting on the day following the transplantation. Complete necrosis of the graft was used as a measure of rejection and the inhibitory action of the compound was evaluated in terms of how long the rejection was postponed. […] The longer the period of administration, the greater the inhibitory action.

[3] = tested on: bone marrow; experiment: Bone marrow inhibition in the skin allograft test; format: in vivo, Fischer rats; settings: i.p., 10 or 20 days
Source text: as §1, §2

N=C(N)NCCCCC(O)CC(=O)NC(O)C(=O)NCCCCNCCCN (stereo not drawn) [spergualin, Spergualin]
cumulative toxicity [1]: No cumulative toxicity was observed | lethality ([1]; gradual intravenous administration of 80 mg/kg): not lethal | LD50 ([1]; intraperitoneal): approximately 150 mg/kg | dose dependence of inhibitory action on skin allograft rejection ([2]; i.p., 10 or 20 days): dose-dependent | inhibition of the rejection ([2]; throughout the administration period): Complete inhibition of the rejection | inhibition of the bone marrow [3]: No inhibition of the bone marrow was observed; also recorded: No such side effects as bone marrow inhibition were observed
